Where a name gives a salt, the structure may show the parent alone.
What was measured:
[1] = Intrinsic dissolution (Wood's apparatus, HPLC) in pH 4.5 acetate buffer or artificial saliva; conditions: for dissolution rates compared with apomorphine glycolate and apomorphine sulfamate: in words
Method: Samples were quantitated using HPLC.
Dissolution experiments were performed using a VanKel VK7010 dissolution tester equipped with a VK750D heater/circulator. […] Approximately 150 mg of acid addition salt of apomorphine salt were compressed with an applied load of approximately 1000 pounds for 1 minute in the Wood's apparatus using a hydraulic press. The dissolution medium was either pH 4.5 acetate buffer or artificial saliva. The medium (900 mL) was equilibrated to 37° C.±0.5° C. and degassed by sparging with helium for ca. 2 minutes at the start of each experiment. The disks were rotated at 75 rpm. Sampling of 1 mL aliquots was performed at the given timepoints using a 10 mL syringe equipped with a stainless steel cannula.
The sample aliquots were analyzed by HPLC for acid addition salt of apomorphine content. HPLC analyses were performed using an Agilent 1100 series liquid chromatograph equipped with a diode array or variable wavelength detector, degasser, quaternary pump, and an autosampler. The chromatographic column was a 4.6×50 mm Luna C18(2) column with 5 μm packing (Phenomenex). The column temperature was set to 25.0° C., and the detector wavelength was 274 nm. The autosampler temperature was set to 5.0° C. The injection volume was 25.0 μL. Mobile phase was 80:20 0.2% trifluoroacetic acid:acetonitrile.
Intrinsic dissolution experiments were conducted in duplicate for apomorphine hydrochloride salt in pH 4.5 acetate buffer and artificial saliva. Aliquots (1 mL) were drawn from the dissolution vessel at time intervals indicated in Table 6, transferred to an HPLC vial, and the dissolution values (mass per unit area) of the apomorphine salt was determined for each aliquot (see Table 6). The determined dissolution values were plotted against the time intervals, and the slope of the linear curve was determined. This slope corresponds to the calculated intrinsic dissolution rate (IDR) for the apomorphine salt.

[2] = physchem; conditions: water
[3] = Dynamic vapor sorption/desorption (DVS); type: physicochemical; conditions: for DVS weight change at 5% equilibration: 5% RH equilibration; for DVS weight loss from 95 to 5% RH: desorption 95 to 5% RH; for DVS weight gain from 5 to 95% RH: sorption 5 to 95% RH
Method: Dynamic vapor sorption (DVS) data were collected on a VTI SGA-100 Vapor Sorption Analyzer. NaCl and PVP were used as calibration standards. Samples were not dried prior to analysis. Sorption and desorption data were collected over a range from 5% to 95% RH at 10% RH increments under a nitrogen purge. The equilibrium criterion used for analysis was less than 0.0100% weight change in 5 minutes with a maximum equilibration time of 3 hours. Data were not corrected for the initial moisture content of the samples.

[4] = solution from aqueous solubility test
[5] = Approximate aqueous solubility of apomorphine salts; conditions: water
[6] = Artificial saliva, 37° C., Table 5 (mean of two tests except glycolate)
[7] = pH 4.5 acetate buffer, 37° C., Table 5 (mean of two tests except glycolate)

| Molecule | IDR [1, 6] [mg/cm^2/min] | dissolution rates compared with apomorphine glycolate and apomorphine sulfamate [1] | IDR [1, 7] [mg/cm^2/min] | DVS weight change at 5% equilibration [3] [%] | DVS weight loss from 95 to 5% RH [3] [%] | DVS weight gain from 5 to 95% RH [3] [%] | Approximate Aqueous Solubility [5] [mg/mL] | also measured |
| --- | --- | --- | --- | --- | --- | --- | --- | --- |
| CN1CCc2cccc3c2[C@H]1Cc1ccc(O)c(O)c1-3 [Hydrochloride, apomorphine hydrochloride, reference compound] | 0.582 | significantly lower | 2.643 | – | – | – | – | solubility [2]: ~21 mg/mL |
| CC(C)C(=O)O.CN1CCc2cccc3c2C1Cc1ccc(O)c(O)c1-3 (stereo not shown) [Isobutyrate, apomorphine isobutyrate] | 0.305 | significantly lower | 1.576 | 0.0 | 0.2 | 0.1 | – | – |
| apomorphine glutarate | – | – | – | – | – | – | 3 | Approximate pH of Aqueous Solution [4]: 6 |
| apomorphine glycolate | 10.862 | – | 34.775 | 0.0 | 0.5 | 0.5 | – | Dissolution in pH 4.5 Acetate Buffer ([1]; 1 min, single experiment): 14.548 mg/cm^2; Dissolution in Artificial Saliva ([1]; 3 min, single experiment): 42.192 mg/cm^2; Dissolution in pH 4.5 Acetate Buffer ([1]; 3 min, single experiment): 38.801 mg/cm^2; Dissolution in Artificial Saliva ([1]; 3.5 min, single experiment): 47.686 mg/cm^2; Dissolution in pH 4.5 Acetate Buffer ([1]; 3.5 min, single experiment): 51.432 mg/cm^2; Dissolution in Artificial Saliva ([1]; 4 min, single experiment): 53.878 mg/cm^2; Dissolution in pH 4.5 Acetate Buffer ([1]; 4 min, single experiment): 72.492 mg/cm^2; Dissolution in Artificial Saliva ([1]; 4.5 min, single experiment): 58.232 mg/cm^2; Dissolution in pH 4.5 Acetate Buffer ([1]; 4.5 min, single experiment): 89.739 mg/cm^2; IDR ([1]; artificial saliva, single experiment): 10.862 mg/cm^2/min; IDR ([1]; pH 4.5 acetate buffer, single experiment): 34.775 mg/cm^2/min |
| apomorphine methylbenzoate | – | – | – | – | – | – | <1 | – |
| apomorphine sulfamate | 16.873 | – | 19.598 | 0.0 | 25.4 | – | – | DVS weight gain from 5 to 85% RH ([3]; sorption 5 to 85% RH): 1.0% |

Reference: patent US20210179561A1, “ACID ADDITION SALTS OF APOMORPHINE, PHARMACEUTICAL COMPOSITIONS CONTAINING THE SAME, AND METHODS OF USING THE SAME” (Sunovion Pharmaceuticals Inc., priority 2018, published 2021)
